Patent US6534490B1, “Unsaturated 14, 15-cyclopropanoandrostanes, method for the production thereof and pharmaceutical preparations containing said compounds” (Jenapharm GmbH & Co. KG., priority 1998, dated 2003)

Assays:
[1] = target: T1, androgen receptor of the rat prostate (Rattus norvegicus, UniProt P15207); assay: Binding to the androgen receptor of the rat prostate (reference substance R 1881); settings: relative to reference substance R 1881 (17β-hydroxy-17α-methyl-estra-4,9,11-trien-3-one)
T1 construct: from tissue; host or cells: rat prostate
T1 sequence (P15207 1-902): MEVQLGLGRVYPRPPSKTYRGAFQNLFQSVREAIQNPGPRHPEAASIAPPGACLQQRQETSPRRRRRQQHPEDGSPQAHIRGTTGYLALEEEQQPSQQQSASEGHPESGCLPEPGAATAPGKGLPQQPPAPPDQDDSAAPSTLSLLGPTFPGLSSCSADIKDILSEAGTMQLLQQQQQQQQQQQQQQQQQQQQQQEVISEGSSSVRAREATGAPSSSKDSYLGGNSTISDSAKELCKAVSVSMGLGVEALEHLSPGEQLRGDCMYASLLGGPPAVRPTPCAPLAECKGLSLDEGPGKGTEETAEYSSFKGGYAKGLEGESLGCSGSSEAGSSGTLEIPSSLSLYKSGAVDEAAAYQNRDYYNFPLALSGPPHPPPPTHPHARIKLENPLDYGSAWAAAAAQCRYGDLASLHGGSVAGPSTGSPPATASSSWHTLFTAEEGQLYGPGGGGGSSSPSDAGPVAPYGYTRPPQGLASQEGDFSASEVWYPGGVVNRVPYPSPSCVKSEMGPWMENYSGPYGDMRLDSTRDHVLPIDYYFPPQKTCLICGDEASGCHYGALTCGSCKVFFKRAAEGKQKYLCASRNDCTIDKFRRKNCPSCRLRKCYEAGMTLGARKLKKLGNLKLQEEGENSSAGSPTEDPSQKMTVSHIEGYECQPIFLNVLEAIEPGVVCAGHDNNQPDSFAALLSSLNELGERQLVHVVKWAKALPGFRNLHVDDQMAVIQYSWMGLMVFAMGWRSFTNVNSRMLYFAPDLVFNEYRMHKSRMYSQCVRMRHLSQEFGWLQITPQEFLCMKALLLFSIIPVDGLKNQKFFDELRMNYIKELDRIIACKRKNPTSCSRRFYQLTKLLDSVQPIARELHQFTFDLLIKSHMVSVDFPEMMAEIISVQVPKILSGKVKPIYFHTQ

[2] = target: T2, progesterone receptor of the rabbit uterus (Oryctolagus cuniculus, UniProt P06186); assay: Binding to the progesterone receptor of the rabbit uterus (reference substance progesterone)
T2 construct: from tissue; host or cells: rabbit uterus
T2 sequence (P06186 1-930): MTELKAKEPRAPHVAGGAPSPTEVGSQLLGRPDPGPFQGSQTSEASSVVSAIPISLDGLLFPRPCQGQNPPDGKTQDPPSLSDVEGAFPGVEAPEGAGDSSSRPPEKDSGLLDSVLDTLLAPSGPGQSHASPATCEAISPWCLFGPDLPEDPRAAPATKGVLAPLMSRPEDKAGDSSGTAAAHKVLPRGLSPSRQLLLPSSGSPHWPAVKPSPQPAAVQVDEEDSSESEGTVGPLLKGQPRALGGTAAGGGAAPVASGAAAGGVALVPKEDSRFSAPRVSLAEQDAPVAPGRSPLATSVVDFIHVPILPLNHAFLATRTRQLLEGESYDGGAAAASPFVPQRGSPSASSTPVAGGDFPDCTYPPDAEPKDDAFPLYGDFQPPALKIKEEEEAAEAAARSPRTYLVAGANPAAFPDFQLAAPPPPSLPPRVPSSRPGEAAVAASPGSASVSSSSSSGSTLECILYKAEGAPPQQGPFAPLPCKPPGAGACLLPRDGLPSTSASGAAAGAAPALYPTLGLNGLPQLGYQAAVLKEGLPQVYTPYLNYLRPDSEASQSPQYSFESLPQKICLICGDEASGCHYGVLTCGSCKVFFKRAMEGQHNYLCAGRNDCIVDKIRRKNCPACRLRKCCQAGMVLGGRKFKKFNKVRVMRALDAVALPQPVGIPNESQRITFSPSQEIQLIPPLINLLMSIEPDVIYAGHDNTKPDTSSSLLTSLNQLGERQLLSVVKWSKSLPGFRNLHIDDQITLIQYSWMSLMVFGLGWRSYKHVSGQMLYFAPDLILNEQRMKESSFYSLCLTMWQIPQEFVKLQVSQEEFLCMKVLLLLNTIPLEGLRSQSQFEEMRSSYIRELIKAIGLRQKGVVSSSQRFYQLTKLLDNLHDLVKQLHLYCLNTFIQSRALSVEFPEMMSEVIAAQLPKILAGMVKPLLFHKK

Hershberger Test = format: in vivo
[3] = Pregnancy maintenance test; format: in vivo

## C[C@]12CCC(=O)C=C1CC[C@@H]1[C@@H]2CC[C@]2(C)[C@@H](O)C[C@@H]3C[C@]312 [J 1193, 17β-hydroxy-14α,15α-methylen-androst-4-en-3-one]
[1]
  binding to the androgen receptor: 24±3%
[2]
  binding to the progesterone receptor: virtually no binding
Hershberger Test
  androgenic activity: significant androgenic activity
[3]
  gestagenic action: very little gestagenic action
